How the values were obtained:
Test in all cases: Z'-LYTE kinase panel
Assay type in all cases: biochemical
AURKA (Aurora A) = target: T1, AURKA (Aurora A) (Homo sapiens, UniProt O14965)
T1 construct: purchased ThermoFisher (SelectScreen, Z'-LYTE)
T1 sequence (O14965 1-403): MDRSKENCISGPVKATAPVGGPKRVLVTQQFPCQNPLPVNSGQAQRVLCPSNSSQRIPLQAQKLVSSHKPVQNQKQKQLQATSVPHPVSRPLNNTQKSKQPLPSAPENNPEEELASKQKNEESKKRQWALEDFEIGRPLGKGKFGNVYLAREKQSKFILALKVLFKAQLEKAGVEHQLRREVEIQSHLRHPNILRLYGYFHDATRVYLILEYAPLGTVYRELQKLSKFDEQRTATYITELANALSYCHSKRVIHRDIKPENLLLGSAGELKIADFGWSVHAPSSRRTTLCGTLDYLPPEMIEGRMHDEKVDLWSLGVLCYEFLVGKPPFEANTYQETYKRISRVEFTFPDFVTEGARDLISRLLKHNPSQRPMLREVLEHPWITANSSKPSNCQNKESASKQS
Summary of the method: (§1)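 Compounds were profiled across a 225-kinase standard panel. Each kinase was run in the standard Z′-LYTE assay and percentage inhibition was recorded at a compound concentration of 10 µM.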

BRAF = target: T2, BRAF (Homo sapiens, UniProt P15056); settings: 10 µM compound; ATP 100
T2 construct: purchased ThermoFisher (SelectScreen, Z'-LYTE)
T2 sequence (P15056 whole entry): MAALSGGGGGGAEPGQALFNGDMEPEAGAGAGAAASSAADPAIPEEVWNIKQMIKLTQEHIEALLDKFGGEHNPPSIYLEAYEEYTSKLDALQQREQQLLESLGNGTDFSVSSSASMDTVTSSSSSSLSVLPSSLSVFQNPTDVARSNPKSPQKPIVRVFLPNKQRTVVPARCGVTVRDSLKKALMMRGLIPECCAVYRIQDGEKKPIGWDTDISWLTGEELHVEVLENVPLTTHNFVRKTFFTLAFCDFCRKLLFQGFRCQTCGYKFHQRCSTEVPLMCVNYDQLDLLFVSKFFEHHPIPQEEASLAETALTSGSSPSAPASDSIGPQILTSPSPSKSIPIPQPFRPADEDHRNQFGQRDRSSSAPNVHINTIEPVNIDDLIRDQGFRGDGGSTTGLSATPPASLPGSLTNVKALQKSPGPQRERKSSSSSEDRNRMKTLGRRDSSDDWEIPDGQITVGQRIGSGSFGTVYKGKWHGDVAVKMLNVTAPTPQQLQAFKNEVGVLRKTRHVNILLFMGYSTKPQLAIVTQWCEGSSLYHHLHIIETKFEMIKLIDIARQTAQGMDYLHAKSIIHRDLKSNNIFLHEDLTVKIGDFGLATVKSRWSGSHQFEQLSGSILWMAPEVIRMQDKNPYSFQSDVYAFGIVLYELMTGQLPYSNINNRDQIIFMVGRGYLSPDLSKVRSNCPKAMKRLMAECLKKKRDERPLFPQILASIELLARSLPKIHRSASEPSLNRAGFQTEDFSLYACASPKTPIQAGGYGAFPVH
Summary of the method: as §1

CSNK1E (CK1 epsilon) = target: T3, CSNK1E (CK1 epsilon) (Homo sapiens, UniProt P49674)
T3 construct: purchased ThermoFisher (SelectScreen, Z'-LYTE)
T3 sequence (P49674 whole entry): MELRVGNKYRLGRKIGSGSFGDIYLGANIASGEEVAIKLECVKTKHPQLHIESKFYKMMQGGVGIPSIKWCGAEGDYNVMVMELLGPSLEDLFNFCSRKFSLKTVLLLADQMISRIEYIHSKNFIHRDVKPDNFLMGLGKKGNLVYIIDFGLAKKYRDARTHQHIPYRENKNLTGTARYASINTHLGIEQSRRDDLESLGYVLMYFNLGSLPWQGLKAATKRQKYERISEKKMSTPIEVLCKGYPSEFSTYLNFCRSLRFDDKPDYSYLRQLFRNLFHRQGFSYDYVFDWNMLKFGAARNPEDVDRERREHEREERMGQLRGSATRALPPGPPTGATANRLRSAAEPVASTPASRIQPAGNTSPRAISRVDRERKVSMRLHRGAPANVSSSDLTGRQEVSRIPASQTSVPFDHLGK
Summary of the method: as §1

EEF2K = target: T4, EEF2K (Homo sapiens, UniProt O00418)
T4 construct: purchased ThermoFisher (SelectScreen, Z'-LYTE)
Summary of the method: as §1

AURKB (Aurora B) = target: T5, AURKB (Aurora B) (Homo sapiens, UniProt Q96GD4)
T5 construct: purchased ThermoFisher (SelectScreen, Z'-LYTE)
Summary of the method: as §1

PHKG2 = target: T6, PHKG2 (Homo sapiens, UniProt P15735)
T6 construct: purchased ThermoFisher (SelectScreen, Z'-LYTE)
T6 sequence (P15735 1-406): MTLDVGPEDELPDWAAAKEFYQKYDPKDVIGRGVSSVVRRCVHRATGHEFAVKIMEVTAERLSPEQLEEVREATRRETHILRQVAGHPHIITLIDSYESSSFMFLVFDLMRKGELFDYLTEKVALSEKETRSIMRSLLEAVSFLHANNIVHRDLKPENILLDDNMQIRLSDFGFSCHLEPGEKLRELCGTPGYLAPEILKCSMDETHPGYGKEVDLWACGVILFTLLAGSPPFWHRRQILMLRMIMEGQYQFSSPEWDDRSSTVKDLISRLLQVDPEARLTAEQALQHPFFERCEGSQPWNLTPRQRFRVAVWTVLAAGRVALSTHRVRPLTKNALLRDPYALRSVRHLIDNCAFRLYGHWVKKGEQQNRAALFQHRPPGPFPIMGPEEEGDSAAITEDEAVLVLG
Summary of the method: as §1

MAPK3 (ERK1) = target: T7, MAPK3 (ERK1) (Homo sapiens, UniProt P27361)
T7 construct: purchased ThermoFisher (SelectScreen, Z'-LYTE)
T7 sequence (P27361 whole entry): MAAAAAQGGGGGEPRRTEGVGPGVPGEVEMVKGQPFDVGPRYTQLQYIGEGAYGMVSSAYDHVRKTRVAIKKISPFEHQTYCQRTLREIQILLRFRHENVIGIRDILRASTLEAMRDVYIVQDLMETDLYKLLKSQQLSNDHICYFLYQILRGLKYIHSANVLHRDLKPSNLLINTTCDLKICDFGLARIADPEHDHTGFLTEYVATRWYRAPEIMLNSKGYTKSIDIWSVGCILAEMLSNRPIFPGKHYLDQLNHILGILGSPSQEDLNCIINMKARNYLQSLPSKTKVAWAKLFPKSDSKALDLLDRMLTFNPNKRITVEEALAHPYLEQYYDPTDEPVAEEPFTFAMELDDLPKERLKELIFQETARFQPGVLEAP
Summary of the method: as §1

ITK = target: T8, ITK (Homo sapiens, UniProt Q08881)
T8 construct: purchased ThermoFisher (SelectScreen, Z'-LYTE)
T8 sequence (Q08881 1-620): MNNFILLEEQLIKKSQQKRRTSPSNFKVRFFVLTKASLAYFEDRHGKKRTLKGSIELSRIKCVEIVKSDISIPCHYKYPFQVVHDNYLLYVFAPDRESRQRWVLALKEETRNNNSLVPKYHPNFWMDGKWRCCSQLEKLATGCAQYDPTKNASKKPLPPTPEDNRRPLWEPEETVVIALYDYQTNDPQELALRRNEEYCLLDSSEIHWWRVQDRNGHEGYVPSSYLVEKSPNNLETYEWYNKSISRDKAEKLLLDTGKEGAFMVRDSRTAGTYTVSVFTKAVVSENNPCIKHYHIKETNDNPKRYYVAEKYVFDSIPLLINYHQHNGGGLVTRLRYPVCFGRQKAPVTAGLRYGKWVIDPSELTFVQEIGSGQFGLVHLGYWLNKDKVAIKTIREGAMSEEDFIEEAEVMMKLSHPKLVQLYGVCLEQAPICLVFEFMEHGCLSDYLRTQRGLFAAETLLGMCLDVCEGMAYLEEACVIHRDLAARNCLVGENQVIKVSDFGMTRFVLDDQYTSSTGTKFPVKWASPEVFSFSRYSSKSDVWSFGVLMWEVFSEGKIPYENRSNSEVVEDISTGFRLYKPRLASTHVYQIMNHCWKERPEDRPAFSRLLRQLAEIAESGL
Summary of the method: as §1

TEK (Tie2) = target: T9, TEK (Tie2) (Homo sapiens, UniProt Q02763)
T9 construct: purchased ThermoFisher (SelectScreen, Z'-LYTE)
T9 sequence (Q02763 23-1124): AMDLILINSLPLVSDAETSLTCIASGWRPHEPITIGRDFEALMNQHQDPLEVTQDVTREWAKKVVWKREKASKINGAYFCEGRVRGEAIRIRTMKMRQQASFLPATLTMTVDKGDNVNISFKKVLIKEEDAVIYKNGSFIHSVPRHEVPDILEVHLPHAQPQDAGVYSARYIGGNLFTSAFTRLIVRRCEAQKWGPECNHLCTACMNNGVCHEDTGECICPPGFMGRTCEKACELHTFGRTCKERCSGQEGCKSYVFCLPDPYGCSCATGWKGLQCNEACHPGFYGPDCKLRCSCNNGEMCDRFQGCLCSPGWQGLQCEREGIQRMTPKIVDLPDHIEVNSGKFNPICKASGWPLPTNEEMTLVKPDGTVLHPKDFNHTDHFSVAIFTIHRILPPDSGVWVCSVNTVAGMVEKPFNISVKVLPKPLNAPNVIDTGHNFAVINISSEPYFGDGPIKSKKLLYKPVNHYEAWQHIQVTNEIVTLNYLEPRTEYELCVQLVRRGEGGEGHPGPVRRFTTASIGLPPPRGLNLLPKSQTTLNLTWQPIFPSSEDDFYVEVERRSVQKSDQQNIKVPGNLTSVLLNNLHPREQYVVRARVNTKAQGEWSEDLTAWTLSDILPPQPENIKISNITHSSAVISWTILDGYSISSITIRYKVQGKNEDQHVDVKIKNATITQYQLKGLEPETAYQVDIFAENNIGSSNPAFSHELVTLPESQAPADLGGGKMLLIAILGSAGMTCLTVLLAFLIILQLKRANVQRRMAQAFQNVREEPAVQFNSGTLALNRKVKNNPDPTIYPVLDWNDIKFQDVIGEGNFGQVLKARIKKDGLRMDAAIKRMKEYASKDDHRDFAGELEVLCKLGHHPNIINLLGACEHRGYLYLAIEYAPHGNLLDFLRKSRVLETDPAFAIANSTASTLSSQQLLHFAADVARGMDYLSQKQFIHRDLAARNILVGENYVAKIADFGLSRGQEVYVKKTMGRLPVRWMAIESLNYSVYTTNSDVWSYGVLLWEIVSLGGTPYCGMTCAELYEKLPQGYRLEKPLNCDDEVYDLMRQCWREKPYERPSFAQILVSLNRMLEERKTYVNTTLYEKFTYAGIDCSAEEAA
Summary of the method: as §1

CSNK1D (CK1 delta) = target: T10, CSNK1D (CK1 delta) (Homo sapiens, UniProt P48730)
T10 construct: purchased ThermoFisher (SelectScreen, Z'-LYTE)
T10 sequence (P48730 whole entry): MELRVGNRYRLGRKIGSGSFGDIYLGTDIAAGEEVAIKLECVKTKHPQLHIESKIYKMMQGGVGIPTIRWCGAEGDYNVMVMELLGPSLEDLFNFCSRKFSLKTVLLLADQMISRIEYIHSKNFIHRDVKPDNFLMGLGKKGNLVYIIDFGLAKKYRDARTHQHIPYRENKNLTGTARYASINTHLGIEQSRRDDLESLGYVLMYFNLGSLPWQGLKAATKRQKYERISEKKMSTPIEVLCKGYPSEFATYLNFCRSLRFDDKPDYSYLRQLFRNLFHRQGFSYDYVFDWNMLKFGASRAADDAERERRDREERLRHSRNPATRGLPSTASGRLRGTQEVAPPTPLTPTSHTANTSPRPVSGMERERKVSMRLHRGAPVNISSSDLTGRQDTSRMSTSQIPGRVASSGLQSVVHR
Summary of the method: as §1

IKBKB (IKK beta) = target: T11, IKBKB (IKK beta) (Homo sapiens, UniProt O14920)
T11 construct: purchased ThermoFisher (SelectScreen, Z'-LYTE)
T11 sequence (O14920 1-756): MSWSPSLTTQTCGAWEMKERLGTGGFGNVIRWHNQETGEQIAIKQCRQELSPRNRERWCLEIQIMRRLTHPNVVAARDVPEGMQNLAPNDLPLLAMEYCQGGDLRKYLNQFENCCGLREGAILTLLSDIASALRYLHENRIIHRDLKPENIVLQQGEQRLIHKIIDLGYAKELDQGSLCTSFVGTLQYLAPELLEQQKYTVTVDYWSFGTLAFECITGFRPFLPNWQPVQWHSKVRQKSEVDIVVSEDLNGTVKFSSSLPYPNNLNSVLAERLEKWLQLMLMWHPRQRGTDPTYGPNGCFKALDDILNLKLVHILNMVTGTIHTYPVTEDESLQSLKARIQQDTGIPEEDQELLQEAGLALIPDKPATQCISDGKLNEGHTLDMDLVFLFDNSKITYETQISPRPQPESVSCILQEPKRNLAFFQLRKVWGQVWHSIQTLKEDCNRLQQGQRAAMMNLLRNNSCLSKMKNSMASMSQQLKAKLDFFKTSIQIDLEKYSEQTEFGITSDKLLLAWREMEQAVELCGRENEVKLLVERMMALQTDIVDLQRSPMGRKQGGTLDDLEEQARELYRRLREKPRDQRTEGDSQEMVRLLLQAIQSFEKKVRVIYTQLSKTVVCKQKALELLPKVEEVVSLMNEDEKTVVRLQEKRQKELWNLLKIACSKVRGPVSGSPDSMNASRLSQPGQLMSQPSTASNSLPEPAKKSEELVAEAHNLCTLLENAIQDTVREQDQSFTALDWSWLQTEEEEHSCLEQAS
Summary of the method: as §1

KDR (VEGFR2) = target: T12, KDR (VEGFR2) (Homo sapiens, UniProt P35968)
T12 construct: purchased ThermoFisher (SelectScreen, Z'-LYTE)
T12 sequence (P35968 20-1356): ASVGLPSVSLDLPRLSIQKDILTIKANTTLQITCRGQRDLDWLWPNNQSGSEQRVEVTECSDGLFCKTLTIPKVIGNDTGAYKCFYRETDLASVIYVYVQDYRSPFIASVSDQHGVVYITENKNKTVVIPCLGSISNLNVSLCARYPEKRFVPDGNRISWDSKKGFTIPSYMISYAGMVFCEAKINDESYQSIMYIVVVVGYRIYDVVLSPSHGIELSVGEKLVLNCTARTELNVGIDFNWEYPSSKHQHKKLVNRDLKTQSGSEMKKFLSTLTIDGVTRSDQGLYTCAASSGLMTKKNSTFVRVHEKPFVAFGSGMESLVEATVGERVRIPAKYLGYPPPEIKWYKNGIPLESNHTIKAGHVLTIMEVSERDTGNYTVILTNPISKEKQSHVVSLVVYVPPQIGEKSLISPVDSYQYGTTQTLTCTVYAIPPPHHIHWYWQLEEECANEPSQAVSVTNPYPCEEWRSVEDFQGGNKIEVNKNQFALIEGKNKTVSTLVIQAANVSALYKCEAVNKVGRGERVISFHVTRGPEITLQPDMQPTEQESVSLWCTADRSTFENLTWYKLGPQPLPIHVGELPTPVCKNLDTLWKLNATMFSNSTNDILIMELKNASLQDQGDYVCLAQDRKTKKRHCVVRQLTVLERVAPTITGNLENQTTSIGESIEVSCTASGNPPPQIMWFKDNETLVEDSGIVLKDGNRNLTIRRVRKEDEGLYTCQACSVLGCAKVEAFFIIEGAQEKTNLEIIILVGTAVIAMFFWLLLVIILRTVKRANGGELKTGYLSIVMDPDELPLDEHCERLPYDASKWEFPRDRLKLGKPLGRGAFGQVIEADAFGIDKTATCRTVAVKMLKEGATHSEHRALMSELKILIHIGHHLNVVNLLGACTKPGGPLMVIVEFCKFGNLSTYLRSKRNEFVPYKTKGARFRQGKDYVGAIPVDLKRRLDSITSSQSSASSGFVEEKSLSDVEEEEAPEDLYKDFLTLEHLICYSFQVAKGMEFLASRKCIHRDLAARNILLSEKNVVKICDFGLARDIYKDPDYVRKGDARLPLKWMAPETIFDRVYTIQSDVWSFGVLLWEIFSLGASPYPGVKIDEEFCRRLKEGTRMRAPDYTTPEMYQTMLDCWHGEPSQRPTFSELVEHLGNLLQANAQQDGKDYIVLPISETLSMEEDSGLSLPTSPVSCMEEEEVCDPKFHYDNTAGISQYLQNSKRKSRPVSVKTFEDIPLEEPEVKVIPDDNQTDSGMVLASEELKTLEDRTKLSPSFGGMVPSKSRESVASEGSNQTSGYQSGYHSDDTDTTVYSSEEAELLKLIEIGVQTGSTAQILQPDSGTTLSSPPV
Summary of the method: as §1

PLK1 = target: T13, PLK1 (Homo sapiens, UniProt P53350)
T13 construct: purchased ThermoFisher (SelectScreen, Z'-LYTE)
T13 sequence (P53350 whole entry): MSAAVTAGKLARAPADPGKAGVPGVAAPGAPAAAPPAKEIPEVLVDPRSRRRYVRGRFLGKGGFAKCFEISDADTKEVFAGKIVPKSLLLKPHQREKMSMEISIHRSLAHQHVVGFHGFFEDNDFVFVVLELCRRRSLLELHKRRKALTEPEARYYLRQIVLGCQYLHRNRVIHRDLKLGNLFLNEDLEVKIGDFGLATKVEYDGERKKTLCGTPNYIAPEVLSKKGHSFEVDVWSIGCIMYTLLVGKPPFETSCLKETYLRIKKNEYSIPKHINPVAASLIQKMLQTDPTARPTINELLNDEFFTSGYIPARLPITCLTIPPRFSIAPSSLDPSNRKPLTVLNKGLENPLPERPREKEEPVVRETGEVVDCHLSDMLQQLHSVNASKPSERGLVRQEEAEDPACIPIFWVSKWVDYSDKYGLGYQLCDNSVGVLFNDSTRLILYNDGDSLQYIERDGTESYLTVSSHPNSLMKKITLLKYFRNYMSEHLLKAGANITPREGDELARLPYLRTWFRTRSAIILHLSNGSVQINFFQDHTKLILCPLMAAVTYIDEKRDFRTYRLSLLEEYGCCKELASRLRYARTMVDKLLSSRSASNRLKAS
Summary of the method: as §1

Compound | inhibition at 10 µM (AURKA (Aurora A)) [%] | inhibition at 10 µM (BRAF) [%] | inhibition at 10 µM (CSNK1E (CK1 epsilon)) [%] | inhibition at 10 µM (EEF2K) [%] | inhibition at 10 µM (AURKB (Aurora B)) [%] | inhibition at 10 µM (PHKG2) [%] | inhibition at 10 µM (MAPK3 (ERK1)) [%] | inhibition at 10 µM (ITK) [%] | inhibition at 10 µM (TEK (Tie2)) [%] | inhibition at 10 µM (CSNK1D (CK1 delta)) [%] | inhibition at 10 µM (IKBKB (IKK beta)) [%] | inhibition at 10 µM (KDR (VEGFR2)) [%] | inhibition at 10 µM (PLK1) [%] | further results
Cc1cc(Nc2nc(N)nn2C(=O)NC(C)C)ccc1Cl [Compound 5] | 78 | 12 | 2.61 | -5.55 | 68 | -2.57 | 7 | 10 | 40 | -2 | 3.42 | 59 | 0.455 | 
Cc1ncc(-c2nc(Nc3ccc(C(=O)NCCN4CCCCC4)cc3)ncc2F)n1C(C)C [Compound 3] | 82 | 90 | 81 | 1.51 | 88 | 79 | 40 | 88 | 73 | 92 | 33 | 100 | 57 | 
XMD8-92 [Compound 2, reference compound] |  |  |  |  |  |  |  |  |  |  |  |  |  | AURKA (Aurora A) % Inhibition (AURKA (Aurora A); 10 µM compound, ATP Km app): 85%; BRAF % Inhibition (BRAF): 15%; CSNK1E (CK1 epsilon) % Inhibition (CSNK1E (CK1 epsilon); 10 µM compound, ATP Km app): 4%; EEF2K % Inhibition (EEF2K; 10 µM compound, ATP Km app): -6%; AURKB (Aurora B) % Inhibition (AURKB (Aurora B); 10 µM compound, ATP Km app): 39%; PHKG2 % Inhibition (PHKG2; 10 µM compound, ATP Km app): 19%; MAPK3 (ERK1) % Inhibition (MAPK3 (ERK1); 10 µM compound, ATP Km app): 8%; ITK % Inhibition (ITK; 10 µM compound, ATP Km app): 18%; TEK (Tie2) % Inhibition (TEK (Tie2); 10 µM compound, ATP Km app): 6.54%; CSNK1D (CK1 delta) % Inhibition (CSNK1D (CK1 delta); 10 µM compound, ATP Km app): 4.56%; IKBKB (IKK beta) % Inhibition (IKBKB (IKK beta); 10 µM compound, ATP Km app): 44%; KDR (VEGFR2) % Inhibition (KDR (VEGFR2); 10 µM compound, ATP Km app): 81%; PLK1 % Inhibition (PLK1; 10 µM compound, ATP Km app): 10%
